Experimental data taken from the supplement of paper PMC10307832.

Assays:
Assay in all cases: relative viability (nuclei count vs DMSO), 5 days (fraction); higher = more cells survive
HCC-366 = tested on: HCC-366
Summary of the method: (§1)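 Relative viability equals treated-well nuclei counts divided by vehicle-well nuclei counts. Counts came from 4× images of lung cancer cell lines grown in 1536-well plates for 5 days after pin-tool dosing on the day after seeding. Dosing used one drug alone or a fixed anchor-drug dose plus five library-drug doses (not always all listed) in √10 steps, and values are medians of duplicate plates.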

NCI-H1563 = tested on: NCI-H1563
Summary of the method: as §1

ChaGo-K-1 = tested on: ChaGo-K-1
Summary of the method: as §1

EPLC-272H = tested on: EPLC-272H
Summary of the method: as §1

NCI-H727 = tested on: NCI-H727
Summary of the method: as §1

NCI-H1623 = tested on: NCI-H1623
Summary of the method: as §1

IA-LM = tested on: IA-LM
Summary of the method: as §1

EBC-1 = tested on: EBC-1
Summary of the method: as §1

NCI-H1299 = tested on: NCI-H1299
Summary of the method: as §1

NCI-H1703 = tested on: NCI-H1703
Summary of the method: as §1

A549 = tested on: A549
Summary of the method: as §1

Calu-6 = tested on: Calu-6
Summary of the method: as §1

## Oc1nc(-c2ccc(C(F)(F)F)cc2)nc2c1CSCC2 [XAV939] + Cc1nc(Nc2ncc(C(=O)Nc3c(C)cccc3Cl)s2)cc(N2CCN(CCO)CC2)n1 [Dasatinib] (partner 0.075 µM)
HCC-366; first compound 0.08 µM
  relative viability: 0.598
HCC-366; first compound 0.253 µM
  relative viability: 0.589
HCC-366; first compound 0.8 µM
  relative viability: 0.824
HCC-366; first compound 2.53 µM
  relative viability: 0.598
NCI-H1563; first compound 0.08 µM
  relative viability: 0.422
NCI-H1563; first compound 0.253 µM
  relative viability: 0.442
NCI-H1563; first compound 0.8 µM
  relative viability: 0.475
NCI-H1563; first compound 2.53 µM
  relative viability: 0.415
ChaGo-K-1; first compound 0.08 µM
  relative viability: 0.654
ChaGo-K-1; first compound 0.253 µM
  relative viability: 0.639
ChaGo-K-1; first compound 0.8 µM
  relative viability: 0.587
ChaGo-K-1; first compound 2.53 µM
  relative viability: 0.56
EPLC-272H; first compound 0.08 µM
  relative viability: 0.385
EPLC-272H; first compound 0.253 µM
  relative viability: 0.403
EPLC-272H; first compound 0.8 µM
  relative viability: 0.355
EPLC-272H; first compound 2.53 µM
  relative viability: 0.247
NCI-H727; first compound 0.08 µM
  relative viability: 0.332
NCI-H727; first compound 0.253 µM
  relative viability: 0.452
NCI-H727; first compound 0.8 µM
  relative viability: 0.442
NCI-H727; first compound 2.53 µM
  relative viability: 0.405
NCI-H1623; first compound 0.08 µM
  relative viability: 0.474
NCI-H1623; first compound 0.253 µM
  relative viability: 0.516
NCI-H1623; first compound 0.8 µM
  relative viability: 0.521
NCI-H1623; first compound 2.53 µM
  relative viability: 0.555

## C=C1C(=O)O[C@@H](CCCCCCCC)[C@@H]1C(=O)O [C-75] + CC1(C)CCC(c2ccc(Cl)cc2)=C(CN2CCN(c3ccc(C(=O)NS(=O)(=O)c4ccc(N[C@H](CCN5CCOCC5)CSc5ccccc5)c(S(=O)(=O)C(F)(F)F)c4)cc3)CC2)C1 [Navitoclax] (partner 0.5 µM)
HCC-366; first compound 0.08 µM
  relative viability: 1.03
HCC-366; first compound 0.253 µM
  relative viability: 1.1
HCC-366; first compound 0.8 µM
  relative viability: 0.943
HCC-366; first compound 8 µM
  relative viability: 0.833
ChaGo-K-1; first compound 0.08 µM
  relative viability: 0.971
ChaGo-K-1; first compound 0.253 µM
  relative viability: 0.953
ChaGo-K-1; first compound 0.8 µM
  relative viability: 0.833
ChaGo-K-1; first compound 2.53 µM
  relative viability: 0.747
ChaGo-K-1; first compound 8 µM
  relative viability: 0.956
IA-LM; first compound 0.08 µM
  relative viability: 0.754
IA-LM; first compound 0.253 µM
  relative viability: 0.834
IA-LM; first compound 0.8 µM
  relative viability: 0.819
IA-LM; first compound 2.53 µM
  relative viability: 0.52
IA-LM; first compound 8 µM
  relative viability: 0.512
EBC-1; first compound 0.08 µM
  relative viability: 0.389
EBC-1; first compound 0.253 µM
  relative viability: 0.508
EBC-1; first compound 0.8 µM
  relative viability: 0.306
EBC-1; first compound 2.53 µM
  relative viability: 0.356
EBC-1; first compound 8 µM
  relative viability: 0.219
NCI-H1299; first compound 0.08 µM
  relative viability: 1.07
NCI-H1299; first compound 0.253 µM
  relative viability: 1.03
NCI-H1299; first compound 0.8 µM
  relative viability: 1.05
NCI-H1299; first compound 2.53 µM
  relative viability: 1.03
NCI-H1299; first compound 8 µM
  relative viability: 1.12
NCI-H1703; first compound 0.08 µM
  relative viability: 1.15
NCI-H1703; first compound 0.253 µM
  relative viability: 1.12
NCI-H1703; first compound 0.8 µM
  relative viability: 0.817
NCI-H1703; first compound 2.53 µM
  relative viability: 1.09
NCI-H1703; first compound 8 µM
  relative viability: 0.967
EPLC-272H; first compound 0.08 µM
  relative viability: 1.22
EPLC-272H; first compound 0.253 µM
  relative viability: 1.03
EPLC-272H; first compound 0.8 µM
  relative viability: 1.21
EPLC-272H; first compound 2.53 µM
  relative viability: 0.856
EPLC-272H; first compound 8 µM
  relative viability: 0.961
NCI-H727; first compound 0.08 µM
  relative viability: 0.464
NCI-H727; first compound 0.253 µM
  relative viability: 0.62
NCI-H727; first compound 0.8 µM
  relative viability: 0.436
NCI-H727; first compound 2.53 µM
  relative viability: 0.377
NCI-H727; first compound 8 µM
  relative viability: 0.319
A549; first compound 0.08 µM
  relative viability: 1.12
A549; first compound 0.253 µM
  relative viability: 1.29
A549; first compound 0.8 µM
  relative viability: 1.18
A549; first compound 2.53 µM
  relative viability: 0.819
A549; first compound 8 µM
  relative viability: 1.15
Calu-6; first compound 0.08 µM
  relative viability: 0.819
Calu-6; first compound 0.253 µM
  relative viability: 0.864
Calu-6; first compound 0.8 µM
  relative viability: 0.786
Calu-6; first compound 2.53 µM
  relative viability: 0.738
Calu-6; first compound 8 µM
  relative viability: 0.714

## C=C1C(=O)O[C@@H](CCCCCCCC)[C@@H]1C(=O)O [C-75] + Cc1nc(Nc2ncc(C(=O)Nc3c(C)cccc3Cl)s2)cc(N2CCN(CCO)CC2)n1 [Dasatinib] (partner 0.075 µM)
HCC-366; first compound 0.08 µM
  relative viability: 0.744
HCC-366; first compound 0.253 µM
  relative viability: 0.623
HCC-366; first compound 0.8 µM
  relative viability: 0.605
HCC-366; first compound 8 µM
  relative viability: 0.443
NCI-H1563; first compound 0.08 µM
  relative viability: 0.387
NCI-H1563; first compound 0.253 µM
  relative viability: 0.453
NCI-H1563; first compound 0.8 µM
  relative viability: 0.444
NCI-H1563; first compound 2.53 µM
  relative viability: 0.415
NCI-H1563; first compound 8 µM
  relative viability: 0.569
ChaGo-K-1; first compound 0.08 µM
  relative viability: 0.675
ChaGo-K-1; first compound 0.253 µM
  relative viability: 0.463
ChaGo-K-1; first compound 0.8 µM
  relative viability: 0.567
ChaGo-K-1; first compound 2.53 µM
  relative viability: 0.393
ChaGo-K-1; first compound 8 µM
  relative viability: 0.593
EPLC-272H; first compound 0.08 µM
  relative viability: 0.412
EPLC-272H; first compound 0.253 µM
  relative viability: 0.292
EPLC-272H; first compound 0.8 µM
  relative viability: 0.351
EPLC-272H; first compound 2.53 µM
  relative viability: 0.33
EPLC-272H; first compound 8 µM
  relative viability: 0.381
NCI-H727; first compound 0.08 µM
  relative viability: 0.406
NCI-H727; first compound 0.253 µM
  relative viability: 0.494
NCI-H727; first compound 0.8 µM
  relative viability: 0.417
NCI-H727; first compound 8 µM
  relative viability: 0.305
NCI-H1623; first compound 0.08 µM
  relative viability: 0.591
NCI-H1623; first compound 0.253 µM
  relative viability: 0.649
NCI-H1623; first compound 0.8 µM
  relative viability: 0.516
NCI-H1623; first compound 2.53 µM
  relative viability: 0.447
NCI-H1623; first compound 8 µM
  relative viability: 0.695

## C=C1C(=O)O[C@@H](CCCCCCCC)[C@@H]1C(=O)O [C-75] + O=C(c1cc(Cc2n[nH]c(=O)c3ccccc23)ccc1F)N1CCN(C(=O)C2CC2)CC1 [Olaparib] (partner 8 µM)
HCC-366; first compound 0.08 µM
  relative viability: 0.349
HCC-366; first compound 0.253 µM
  relative viability: 0.49
HCC-366; first compound 0.8 µM
  relative viability: 0.341
HCC-366; first compound 2.53 µM
  relative viability: 0.356
HCC-366; first compound 8 µM
  relative viability: 0.347
ChaGo-K-1; first compound 0.08 µM
  relative viability: 0.401
ChaGo-K-1; first compound 0.253 µM
  relative viability: 0.392
ChaGo-K-1; first compound 0.8 µM
  relative viability: 0.411
ChaGo-K-1; first compound 2.53 µM
  relative viability: 0.358
ChaGo-K-1; first compound 8 µM
  relative viability: 0.401
IA-LM; first compound 0.08 µM
  relative viability: 0.803
IA-LM; first compound 0.253 µM
  relative viability: 0.885
IA-LM; first compound 0.8 µM
  relative viability: 0.788
IA-LM; first compound 2.53 µM
  relative viability: 0.761
IA-LM; first compound 8 µM
  relative viability: 0.767
EBC-1; first compound 0.08 µM
  relative viability: 0.62
EBC-1; first compound 0.253 µM
  relative viability: 0.807
EBC-1; first compound 0.8 µM
  relative viability: 0.692
EBC-1; first compound 2.53 µM
  relative viability: 0.613
EBC-1; first compound 8 µM
  relative viability: 0.536
NCI-H1299; first compound 0.08 µM
  relative viability: 0.946
NCI-H1299; first compound 0.253 µM
  relative viability: 0.976
NCI-H1299; first compound 0.8 µM
  relative viability: 0.974
NCI-H1299; first compound 2.53 µM
  relative viability: 0.93
NCI-H1299; first compound 8 µM
  relative viability: 0.924
NCI-H1703; first compound 0.08 µM
  relative viability: 0.416
NCI-H1703; first compound 0.253 µM
  relative viability: 0.391
NCI-H1703; first compound 0.8 µM
  relative viability: 0.348
NCI-H1703; first compound 2.53 µM
  relative viability: 0.441
NCI-H1703; first compound 8 µM
  relative viability: 0.432
EPLC-272H; first compound 0.08 µM
  relative viability: 0.874
EPLC-272H; first compound 0.253 µM
  relative viability: 0.878
EPLC-272H; first compound 0.8 µM
  relative viability: 0.702
EPLC-272H; first compound 2.53 µM
  relative viability: 0.701
EPLC-272H; first compound 8 µM
  relative viability: 0.436
NCI-H727; first compound 0.08 µM
  relative viability: 0.69
NCI-H727; first compound 0.253 µM
  relative viability: 0.865
NCI-H727; first compound 0.8 µM
  relative viability: 0.671
NCI-H727; first compound 2.53 µM
  relative viability: 0.371
NCI-H727; first compound 8 µM
  relative viability: 0.636
A549; first compound 0.08 µM
  relative viability: 0.394
A549; first compound 0.253 µM
  relative viability: 0.497
A549; first compound 0.8 µM
  relative viability: 0.216
A549; first compound 2.53 µM
  relative viability: 0.128
A549; first compound 8 µM
  relative viability: 0.251
Calu-6; first compound 0.08 µM
  relative viability: 0.558
Calu-6; first compound 0.253 µM
  relative viability: 0.576
Calu-6; first compound 0.8 µM
  relative viability: 0.522
Calu-6; first compound 2.53 µM
  relative viability: 0.489
Calu-6; first compound 8 µM
  relative viability: 0.469
